Source: PubChem BioAssay (NCI)
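Step 1: Grow cells in 96-well plates. Step 2: Expose to compound for 48 hours at 5 concentrations. Step 3: Interpolate endpoints linearly; if unreached, use highest concentration. Abbreviation: GI50, concentration required for 50% inhibition of growth. TGI: concentration producing complete growth inhibition.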

Legend:
Assay in all cases: NCI tumour cell line growth inhibition, 48 h
EKVX NSCLC = tested on: EKVX NSCLC
HCC-2998 colon = tested on: HCC-2998 colon
MCF7 breast = tested on: MCF7 breast
UACC-257 melanoma = tested on: UACC-257 melanoma
OVCAR-8 ovarian = tested on: OVCAR-8 ovarian
NCI-H226 lung = tested on: NCI-H226 lung
HOP-62 NSCLC = tested on: HOP-62 NSCLC
MOLT-4 leukemia = tested on: MOLT-4 leukemia
SF-295 CNS = tested on: SF-295 CNS
MALME-3M melanoma = tested on: MALME-3M melanoma

Structure (SMILES)	GI50 (EKVX NSCLC)	TGI (EKVX NSCLC)	GI50 (HCC-2998 colon)	TGI (HCC-2998 colon)	GI50 (MCF7 breast)	TGI (MCF7 breast)	GI50 (UACC-257 melanoma)	TGI (UACC-257 melanoma)	GI50 (OVCAR-8 ovarian)	TGI (OVCAR-8 ovarian)	GI50 (NCI-H226 lung)	TGI (NCI-H226 lung)	GI50 (HOP-62 NSCLC)	TGI (HOP-62 NSCLC)	GI50 (MOLT-4 leukemia)	TGI (MOLT-4 leukemia)	GI50 (SF-295 CNS)	TGI (SF-295 CNS)	TGI (MALME-3M melanoma)	GI50 (MALME-3M melanoma)
COc1cc(-c2cc3ncccc3c3nc(N)c4cccnc4c23)cc(OC)c1OC	0.763 µM	50.4 µM	1.66 µM	> 100 µM	0.327 µM	> 100 µM	2.08 µM	44.7 µM	0.756 µM	46 µM	16.8 µM	> 100 µM	0.599 µM	87.1 µM	0.604 µM	8.05 µM	0.308 µM	15.5 µM		
COCCCNC(=O)C1C(=O)N(CCCOC)C(=O)/C1=N\N (stereo unspecified)		> 100 µM		> 100 µM				> 100 µM		> 100 µM				> 100 µM		> 100 µM		> 100 µM	> 100 µM	
CC(=O)[CH-]C(C)=O.CC(=O)[CH-]C(C)=O.[CH2-]CCC.[CH2-]CCC.[Sn+4]	0.901 µM	2.27 µM					0.376 µM	1.68 µM	0.788 µM	2.05 µM	1.77 µM	3.45 µM	2.02 µM	3.56 µM	0.37 µM	> 100 µM	1.45 µM	2.8 µM	1.07 µM	0.2 µM
C=C1C(=O)O[C@H]2C[C@@H]1CC/C(C)=C/CC/C(C)=C/CC[C@H]2C	19.7 µM	42.8 µM	14.5 µM	28.9 µM	14.7 µM	56.7 µM	11.5 µM	29.4 µM	15.7 µM	39.3 µM			12.5 µM	27.1 µM	10.6 µM	> 24.6 µM	13.4 µM	32.7 µM		
c1cc(N(CCn2cccn2)CCn2cccn2)cc(N(CCn2cccn2)CCn2cccn2)c1		> 100 µM		> 100 µM				> 100 µM		> 100 µM				> 100 µM		> 100 µM		> 100 µM		
FC(F)(F)c1nc2nc(Cl)c(Cl)nc2n1CCCN1CCOCC1		50.5 µM				> 100 µM		64 µM		> 100 µM		> 100 µM		> 100 µM		48.6 µM		> 100 µM	> 100 µM	
COc1ccc(S(=O)(=O)N2CC(C)(C)CN(S(=O)(=O)c3ccc(OC)cc3)C2C(=O)NO)cc1	12.3 µM	> 20 µM			> 20 µM	> 20 µM	> 19.1 µM	> 20 µM	> 20 µM	> 20 µM	> 17.1 µM	> 20 µM	> 20 µM	> 20 µM	> 11 µM	> 20 µM	> 20 µM	> 20 µM	> 20 µM	5.93 µM
COC(=O)[C@@H](C)C[C@H](Cc1ccccc1)NC(=O)c1csc(CC[C@H](C(C)C)N(C)C(=O)[C@@H](NC(=O)[C@H]2CCCCN2C)C(C)C)n1	1.33 µM	> 33.3 µM	0.562 µM	> 33.3 µM	0.078 µM	> 33.3 µM	> 33.3 µM	> 33.3 µM	0.465 µM	> 33.3 µM	0.856 µM	> 23.9 µM	0.536 µM	> 33.3 µM	0.44 µM	> 33.3 µM	0.334 µM	> 33.3 µM		
Nc1ccccc1C(=O)CC1OC(=O)c2ccccc21 (stereo unspecified)		> 100 µM				> 100 µM		> 100 µM		> 100 µM		> 100 µM		> 100 µM		> 100 µM		> 100 µM	> 100 µM	
CCC[CH2][Sn]1([CH2]CCC)[O]CC(Cc2ccccc2)[O]1 (stereo unspecified)	2.39 µM	8.77 µM	7.25 µM	20.2 µM			1.88 µM	5.27 µM	2.61 µM	6.59 µM	15.4 µM	29.5 µM	4.04 µM	19.4 µM	1.64 µM	6.07 µM	2.1 µM	6.3 µM	3.51 µM	0.941 µM
CCCC(=O)NC1=C(Cl)C(=O)c2ccccc2C1=O		16.8 µM		16.3 µM		7.39 µM		14 µM		34.8 µM		29.9 µM		25.7 µM		7.2 µM		17.1 µM		
Cc1ccc(S(=O)(=O)NC(=O)C2C(=O)CC3(CCCCC3)CC2=O)cc1		61.9 µM				55.7 µM		78.1 µM		87.1 µM		> 100 µM		> 100 µM		> 100 µM		67.1 µM		
COc1ccc2c(c1)N1CCc3cc(OC)c(OC)cc3C1C2 (stereo unspecified)		> 100 µM		> 100 µM				> 100 µM		> 100 µM		98.7 µM		> 100 µM		> 100 µM		> 100 µM	> 100 µM	
Cc1sc2nc(-c3ccncc3)c(/C=N/N=C(N)N)n2c1C	75.9 µM	> 100 µM									26.8 µM	84.6 µM	33.9 µM	> 100 µM	18.2 µM	> 100 µM	24.9 µM	72.7 µM		
C=C(C)C(=O)O[C@H]1C[C@@]23O[C@@H]2CCC(=C[C@H]2OC(=O)C(=C)[C@H]12)COC3O (stereo partly specified)		> 100 µM		> 100 µM		> 100 µM		> 100 µM		> 100 µM		> 100 µM		> 100 µM		92.2 µM		> 100 µM		
CN(C)CC(C)(C)C(=O)/C=C/c1ccc(/C=C/C(=O)C(C)(C)CN(C)C)cc1		3.26 µM		3.04 µM				3.83 µM		6.71 µM		4.93 µM		4.51 µM				3.84 µM	3.97 µM	
O=C(CP(=O)(O)O)NC(CC(=O)OCc1ccccc1)C(=O)OCc1ccccc1 (stereo unspecified)		> 100 µM		> 100 µM				> 100 µM		> 100 µM		> 100 µM		> 100 µM		> 100 µM		> 100 µM	> 100 µM	
Cc1[nH]c2ccccc2c1C(=O)CC1(O)C(=O)Nc2ccccc21 (stereo unspecified)		> 100 µM		> 100 µM				> 100 µM				> 100 µM		> 100 µM		> 100 µM		> 100 µM		
